Values of other authors as cited in patent US20120190734A1, “COMPOUNDS AND COMPOSITIONS FOR TREATING INFECTION” (priority 2011, published 2012).

What was measured:
[1] = test system: herpes simplex virus (HSV-2)
[2] = molecular target: HIV-1 reverse transcriptase (Human immunodeficiency virus type 1 group M subtype B, UniProt P04585)

Compound	anti-herpes simplex virus (HSV-2) activity in vitro [1]	effect on HIV-1 reverse transcriptase activity [2]	other results
O=c1cc(-c2ccc(O)cc2)oc2cc(O)cc(O)c12 [5,7,4-truhydroxyflavone]			anti-influenza virus activity (influenza virus): anti-influenza virus activity
O=C(O[C@@H]1O[C@@H]2COC(=O)c3cc(O)c(O)c(O)c3-c3c(cc(O)c(O)c3O)C(=O)O[C@H]2[C@H](OC(=O)c2cc(O)c(O)c(O)c2)[C@H]1OC(=O)c1cc(O)c(O)c(O)c1)c1cc(O)c(O)c(O)c1 [Eugeniin]	exhibited anti-herpes simplex virus (HSV-2) activity		
COC(=O)c1cc(O)c(O)c(O)c1 [methyl gallate]	exhibited anti-herpes simplex virus (HSV-2) activity		
COCc1cc2cc(OC)c(OC)cc2c(-c2ccc3c(c2)OCO3)c1C=O [phyllamycin B]		inhibitory effect	
COc1cc2cc3c(c(-c4ccc5c(c4)OCO5)c2cc1OC)COC3=O [retrojusticiden B]		inhibitory effect	
Prunellin			minimum inhibition concentration against HIV-1 in vitro (HIV-1): 2.2 µg/mL
